Experimental data as given in US20230017045A1, “PYRIDINE AND PYRIMIDINE CARBOXYLATE HERBICIDES AND METHODS OF USE THEREOF” (Dow AgroSciences LLC, priority 2017, published 2023).

test system: test plant species; assay: Post-emergent herbicidal activity test (greenhouse, foliar spray, visual growth reduction); format: in vivo; conditions: post-emergence, 336 h, ALOMY: blackgrass (Alopecurus myosuroides), 140 g ai/ha, 14 days after application, read-out: Visual Growth Reduction (%) 14 Days After Application, ALOMY
Method in brief: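 Seedlings were raised 7-21 d in a greenhouse under a 15 h photoperiod until the first or second true leaf. Each compound, dissolved in acetone:DMSO 97:3 and diluted into a surfactant-containing spray mixture, was then applied at 187 L/ha. Plants were subirrigated, and growth reduction was scored visually at 14 d.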

Row | Structure (SMILES) | pest or weed control at 140 g/ha
1 | O=C(O)c1nc(-c2ccc(C(F)(F)F)cc2)c(Cl)cc1Cl [F96, 3,5-Dichloro-6-(4-(trifluoromethyl)phenyl)picolinic acid] | 0 to 29%
2 | COC(=O)c1nc(-c2ccc(C(F)(F)F)cc2C(N)=O)c(Cl)cc1Cl [F147, Methyl 6-(2-carbamoyl-4-(trifluoromethyl)phenyl)-3,5-dichloropicolinate] | 0 to 29%
3 | COC(=O)c1nc(-c2ccc(C(F)(F)F)c(S(C)(=O)=O)c2Cl)ccc1Cl [F139, methyl 3-chloro-6-(2-chloro-3-(methylsulfonyl)-4-(trifluoromethyl)phenyl)picolinate] | 0 to 29%

same assay, conditions: post-emergence, 336 h, AMARE: redroot pigweed (Amaranthus retroflexus), 140 g ai/ha, 14 days after application, read-out: Visual Growth Reduction (%) 14 Days After Application, AMARE

Row | Structure (SMILES) | pest or weed control at 140 g/ha
4 | O=C(O)c1nc(-c2ccc(C(F)(F)F)cc2)c(Cl)cc1Cl [F96, 3,5-Dichloro-6-(4-(trifluoromethyl)phenyl)picolinic acid] | 30 to 44%
5 | COC(=O)c1nc(-c2ccc(C(F)(F)F)cc2C(N)=O)c(Cl)cc1Cl [F147, Methyl 6-(2-carbamoyl-4-(trifluoromethyl)phenyl)-3,5-dichloropicolinate] | 45 to 59%
6 | COC(=O)c1nc(-c2ccc(C(F)(F)F)c(S(C)(=O)=O)c2Cl)ccc1Cl [F139, methyl 3-chloro-6-(2-chloro-3-(methylsulfonyl)-4-(trifluoromethyl)phenyl)picolinate] | 0 to 29%

same assay, conditions: post-emergence, 336 h, AVEFA: wild oat (Avena fatua), 140 g ai/ha, 14 days after application, read-out: Visual Growth Reduction (%) 14 Days After Application, AVEFA

Row | Structure (SMILES) | pest or weed control at 140 g/ha
7 | O=C(O)c1nc(-c2ccc(C(F)(F)F)cc2)c(Cl)cc1Cl [F96, 3,5-Dichloro-6-(4-(trifluoromethyl)phenyl)picolinic acid] | 0 to 29%
8 | COC(=O)c1nc(-c2ccc(C(F)(F)F)cc2C(N)=O)c(Cl)cc1Cl [F147, Methyl 6-(2-carbamoyl-4-(trifluoromethyl)phenyl)-3,5-dichloropicolinate] | 0 to 29%
9 | COC(=O)c1nc(-c2ccc(C(F)(F)F)c(S(C)(=O)=O)c2Cl)ccc1Cl [F139, methyl 3-chloro-6-(2-chloro-3-(methylsulfonyl)-4-(trifluoromethyl)phenyl)picolinate] | 0 to 29%

same assay, conditions: post-emergence, 336 h, CHEAL: lambsquarters (Chenopodium album), 140 g ai/ha, 14 days after application, read-out: Visual Growth Reduction (%) 14 Days After Application, CHEAL

Row | Structure (SMILES) | pest or weed control at 140 g/ha
10 | O=C(O)c1nc(-c2ccc(C(F)(F)F)cc2)c(Cl)cc1Cl [F96, 3,5-Dichloro-6-(4-(trifluoromethyl)phenyl)picolinic acid] | 60 to 74%
11 | COC(=O)c1nc(-c2ccc(C(F)(F)F)cc2C(N)=O)c(Cl)cc1Cl [F147, Methyl 6-(2-carbamoyl-4-(trifluoromethyl)phenyl)-3,5-dichloropicolinate] | 30 to 44%
12 | COC(=O)c1nc(-c2ccc(C(F)(F)F)c(S(C)(=O)=O)c2Cl)ccc1Cl [F139, methyl 3-chloro-6-(2-chloro-3-(methylsulfonyl)-4-(trifluoromethyl)phenyl)picolinate] | 0 to 29%

same assay, conditions: post-emergence, 336 h, CIRAR: canada thistle (Cirsium arvense), 140 g ai/ha, 14 days after application, read-out: Visual Growth Reduction (%) 14 Days After Application, CIRAR

Row | Structure (SMILES) | pest or weed control at 140 g/ha
13 | O=C(O)c1nc(-c2ccc(C(F)(F)F)cc2)c(Cl)cc1Cl [F96, 3,5-Dichloro-6-(4-(trifluoromethyl)phenyl)picolinic acid] | 30 to 44%
14 | COC(=O)c1nc(-c2ccc(C(F)(F)F)cc2C(N)=O)c(Cl)cc1Cl [F147, Methyl 6-(2-carbamoyl-4-(trifluoromethyl)phenyl)-3,5-dichloropicolinate] | 0 to 29%
15 | COC(=O)c1nc(-c2ccc(C(F)(F)F)c(S(C)(=O)=O)c2Cl)ccc1Cl [F139, methyl 3-chloro-6-(2-chloro-3-(methylsulfonyl)-4-(trifluoromethyl)phenyl)picolinate] | 0 to 29%

same assay, conditions: post-emergence, 336 h, CYPES: yellow nutsedge (Cyperus esculentus), 140 g ai/ha, 14 days after application, read-out: Visual Growth Reduction (%) 14 Days After Application, CYPES

Row | Structure (SMILES) | pest or weed control at 140 g/ha
16 | O=C(O)c1nc(-c2ccc(C(F)(F)F)cc2)c(Cl)cc1Cl [F96, 3,5-Dichloro-6-(4-(trifluoromethyl)phenyl)picolinic acid] | 0 to 29%
17 | COC(=O)c1nc(-c2ccc(C(F)(F)F)cc2C(N)=O)c(Cl)cc1Cl [F147, Methyl 6-(2-carbamoyl-4-(trifluoromethyl)phenyl)-3,5-dichloropicolinate] | 0 to 29%
18 | COC(=O)c1nc(-c2ccc(C(F)(F)F)c(S(C)(=O)=O)c2Cl)ccc1Cl [F139, methyl 3-chloro-6-(2-chloro-3-(methylsulfonyl)-4-(trifluoromethyl)phenyl)picolinate] | 30 to 44%

same assay, conditions: post-emergence, 336 h, DIGSA: crabgrass (Digitaria sanguinalis), 140 g ai/ha, 14 days after application, read-out: Visual Growth Reduction (%) 14 Days After Application, DIGSA

Row | Structure (SMILES) | pest or weed control at 140 g/ha
19 | O=C(O)c1nc(-c2ccc(C(F)(F)F)cc2)c(Cl)cc1Cl [F96, 3,5-Dichloro-6-(4-(trifluoromethyl)phenyl)picolinic acid] | 0 to 29%
20 | COC(=O)c1nc(-c2ccc(C(F)(F)F)cc2C(N)=O)c(Cl)cc1Cl [F147, Methyl 6-(2-carbamoyl-4-(trifluoromethyl)phenyl)-3,5-dichloropicolinate] | 0 to 29%
21 | COC(=O)c1nc(-c2ccc(C(F)(F)F)c(S(C)(=O)=O)c2Cl)ccc1Cl [F139, methyl 3-chloro-6-(2-chloro-3-(methylsulfonyl)-4-(trifluoromethyl)phenyl)picolinate] | 0 to 29%

same assay, conditions: post-emergence, 336 h, ECHCG: barnyardgrass (Echinochloa crus-galli), 140 g ai/ha, 14 days after application, read-out: Visual Growth Reduction (%) 14 Days After Application, ECHCG

Row | Structure (SMILES) | pest or weed control at 140 g/ha
22 | O=C(O)c1nc(-c2ccc(C(F)(F)F)cc2)c(Cl)cc1Cl [F96, 3,5-Dichloro-6-(4-(trifluoromethyl)phenyl)picolinic acid] | 0 to 29%
23 | COC(=O)c1nc(-c2ccc(C(F)(F)F)cc2C(N)=O)c(Cl)cc1Cl [F147, Methyl 6-(2-carbamoyl-4-(trifluoromethyl)phenyl)-3,5-dichloropicolinate] | 0 to 29%
24 | COC(=O)c1nc(-c2ccc(C(F)(F)F)c(S(C)(=O)=O)c2Cl)ccc1Cl [F139, methyl 3-chloro-6-(2-chloro-3-(methylsulfonyl)-4-(trifluoromethyl)phenyl)picolinate] | 0 to 29%

same assay, conditions: post-emergence, 336 h, IPOHE: ivy-leaf morning glory (Ipomoea hederacea), 140 g ai/ha, 14 days after application, read-out: Visual Growth Reduction (%) 14 Days After Application, IPOHE

Row | Structure (SMILES) | pest or weed control at 140 g/ha
25 | O=C(O)c1nc(-c2ccc(C(F)(F)F)cc2)c(Cl)cc1Cl [F96, 3,5-Dichloro-6-(4-(trifluoromethyl)phenyl)picolinic acid] | 75 to 84%
26 | COC(=O)c1nc(-c2ccc(C(F)(F)F)cc2C(N)=O)c(Cl)cc1Cl [F147, Methyl 6-(2-carbamoyl-4-(trifluoromethyl)phenyl)-3,5-dichloropicolinate] | 30 to 44%
27 | COC(=O)c1nc(-c2ccc(C(F)(F)F)c(S(C)(=O)=O)c2Cl)ccc1Cl [F139, methyl 3-chloro-6-(2-chloro-3-(methylsulfonyl)-4-(trifluoromethyl)phenyl)picolinate] | 0 to 29%

same assay, conditions: post-emergence, 336 h, KCHSC: kochia (Bassia scoparia), 140 g ai/ha, 14 days after application, read-out: Visual Growth Reduction (%) 14 Days After Application, KCHSC

Row | Structure (SMILES) | pest or weed control at 140 g/ha
28 | O=C(O)c1nc(-c2ccc(C(F)(F)F)cc2)c(Cl)cc1Cl [F96, 3,5-Dichloro-6-(4-(trifluoromethyl)phenyl)picolinic acid] | 0 to 29%
29 | COC(=O)c1nc(-c2ccc(C(F)(F)F)cc2C(N)=O)c(Cl)cc1Cl [F147, Methyl 6-(2-carbamoyl-4-(trifluoromethyl)phenyl)-3,5-dichloropicolinate] | 0 to 29%
30 | COC(=O)c1nc(-c2ccc(C(F)(F)F)c(S(C)(=O)=O)c2Cl)ccc1Cl [F139, methyl 3-chloro-6-(2-chloro-3-(methylsulfonyl)-4-(trifluoromethyl)phenyl)picolinate] | 0 to 29%

same assay, conditions: post-emergence, 336 h, ORYSA: rice (Oryza sativa), 140 g ai/ha, 14 days after application, read-out: Visual Growth Reduction (%) 14 Days After Application, ORYSA

Row | Structure (SMILES) | pest or weed control at 140 g/ha
31 | O=C(O)c1nc(-c2ccc(C(F)(F)F)cc2)c(Cl)cc1Cl [F96, 3,5-Dichloro-6-(4-(trifluoromethyl)phenyl)picolinic acid] | 0 to 29%
32 | COC(=O)c1nc(-c2ccc(C(F)(F)F)cc2C(N)=O)c(Cl)cc1Cl [F147, Methyl 6-(2-carbamoyl-4-(trifluoromethyl)phenyl)-3,5-dichloropicolinate] | 0 to 29%
33 | COC(=O)c1nc(-c2ccc(C(F)(F)F)c(S(C)(=O)=O)c2Cl)ccc1Cl [F139, methyl 3-chloro-6-(2-chloro-3-(methylsulfonyl)-4-(trifluoromethyl)phenyl)picolinate] | 0 to 29%

same assay, conditions: post-emergence, 336 h, SETFA: giant foxtail (Setaria faberi), 140 g ai/ha, 14 days after application, read-out: Visual Growth Reduction (%) 14 Days After Application, SETFA

Row | Structure (SMILES) | pest or weed control at 140 g/ha
34 | O=C(O)c1nc(-c2ccc(C(F)(F)F)cc2)c(Cl)cc1Cl [F96, 3,5-Dichloro-6-(4-(trifluoromethyl)phenyl)picolinic acid] | 45 to 59%
35 | COC(=O)c1nc(-c2ccc(C(F)(F)F)cc2C(N)=O)c(Cl)cc1Cl [F147, Methyl 6-(2-carbamoyl-4-(trifluoromethyl)phenyl)-3,5-dichloropicolinate] | 0 to 29%
36 | COC(=O)c1nc(-c2ccc(C(F)(F)F)c(S(C)(=O)=O)c2Cl)ccc1Cl [F139, methyl 3-chloro-6-(2-chloro-3-(methylsulfonyl)-4-(trifluoromethyl)phenyl)picolinate] | 0 to 29%

same assay, conditions: post-emergence, 336 h, SORVU: grain sorghum (Sorghum vulgare), 140 g ai/ha, 14 days after application, read-out: Visual Growth Reduction (%) 14 Days After Application, SORVU

Row | Structure (SMILES) | pest or weed control at 140 g/ha
37 | O=C(O)c1nc(-c2ccc(C(F)(F)F)cc2)c(Cl)cc1Cl [F96, 3,5-Dichloro-6-(4-(trifluoromethyl)phenyl)picolinic acid] | 60 to 74%
38 | COC(=O)c1nc(-c2ccc(C(F)(F)F)cc2C(N)=O)c(Cl)cc1Cl [F147, Methyl 6-(2-carbamoyl-4-(trifluoromethyl)phenyl)-3,5-dichloropicolinate] | 0 to 29%
39 | COC(=O)c1nc(-c2ccc(C(F)(F)F)c(S(C)(=O)=O)c2Cl)ccc1Cl [F139, methyl 3-chloro-6-(2-chloro-3-(methylsulfonyl)-4-(trifluoromethyl)phenyl)picolinate] | 0 to 29%

same assay, conditions: post-emergence, 336 h, STEME: common chickweed (Stellaria media), 140 g ai/ha, 14 days after application, read-out: Visual Growth Reduction (%) 14 Days After Application, STEME

Row | Structure (SMILES) | pest or weed control at 140 g/ha
40 | O=C(O)c1nc(-c2ccc(C(F)(F)F)cc2)c(Cl)cc1Cl [F96, 3,5-Dichloro-6-(4-(trifluoromethyl)phenyl)picolinic acid] | 0 to 29%
41 | COC(=O)c1nc(-c2ccc(C(F)(F)F)cc2C(N)=O)c(Cl)cc1Cl [F147, Methyl 6-(2-carbamoyl-4-(trifluoromethyl)phenyl)-3,5-dichloropicolinate] | 0 to 29%
42 | COC(=O)c1nc(-c2ccc(C(F)(F)F)c(S(C)(=O)=O)c2Cl)ccc1Cl [F139, methyl 3-chloro-6-(2-chloro-3-(methylsulfonyl)-4-(trifluoromethyl)phenyl)picolinate] | 0 to 29%

same assay, conditions: post-emergence, 336 h, TRZAS: wheat, spring (Triticum aestivum), 140 g ai/ha, 14 days after application, read-out: Visual Growth Reduction (%) 14 Days After Application, TRZAS

Row | Structure (SMILES) | pest or weed control at 140 g/ha
43 | O=C(O)c1nc(-c2ccc(C(F)(F)F)cc2)c(Cl)cc1Cl [F96, 3,5-Dichloro-6-(4-(trifluoromethyl)phenyl)picolinic acid] | 0 to 29%
44 | COC(=O)c1nc(-c2ccc(C(F)(F)F)cc2C(N)=O)c(Cl)cc1Cl [F147, Methyl 6-(2-carbamoyl-4-(trifluoromethyl)phenyl)-3,5-dichloropicolinate] | 0 to 29%
45 | COC(=O)c1nc(-c2ccc(C(F)(F)F)c(S(C)(=O)=O)c2Cl)ccc1Cl [F139, methyl 3-chloro-6-(2-chloro-3-(methylsulfonyl)-4-(trifluoromethyl)phenyl)picolinate] | 0 to 29%
